From patent publication EP1462117A1, “Method for in vivo detection of antipsychotic properties of dopamine D3 receptor ligands” (priority 2003, dated 2004)
Values joined by “and” are separate entries in the source; they are usually repeats but may differ in a detail not shown here. Identical values can stand only once.

Tests used:
[1] = system: Swiss mice; test: MK-801 (dizocilpine)-induced and spontaneous locomotor activity, acute treatment, actimeter; type: in vivo; details: for MK-801-induced hyperactivity: post-hoc vs saline
Procedure: (§1) Male Swiss mice (Iffa Credo, France), weighing 25-30 g, were housed four per cage (25 × 15 × 13 cm), on a 12 hr/12 hr light/dark cycle (lights on at 07:00 a.m.), with food and water ad libitum. […] Experiments with D3R-deficient mice were performed on male homozygous mutant mice and their wild-type littermates. […] The mice used in the present study were backcrossed 7 to 8 times.
Haloperidol (Janssen Pharmaceuticals, Beerse, Belgium) and clozapine (Novartis, Basel, Switzerland) were dissolved in a few drops of hydrochloric acid and distilled water, and the pH of the solution was adjusted to pH 5 to 6 using NaOH. […] The compounds were injected i.p. in a volume of 5 ml/kg.
(§2) All experiments were conducted between 2.00 p.m. and 6.00 p.m., and the animals were kept in the test room at least 1 h before recording their activity. […] Counts for forward horizontal activity were incremented each time the animal moved from one-half part of the cage to the other, corresponding to disruption of two crossed parallel beams distant of 14 cm. In time-course studies, counts were summed every 5 min.
(§3) Between-group differences were analyzed with the Statistica™ software using two-way analysis of variance (ANOVA) and Least Significance Difference (LSD) post-hoc test. The analysis of data obtained with the same animals evaluated on several occasions (time-course experiments), between-within univariate or multivariate ANOVA for repeated measures were used (time being the repeated measure).
To assess simply the in vivo biological activity of the novel compound at the D3 receptor, the above described test, in which hyperlocomotion induced by low doses of dizocilpine is measured, was used.

[2] = system: wild-type (D3R^+/+) mice; test: MK-801-induced locomotor activity in wild-type mice; type: in vivo
Procedure: Male Swiss mice (Iffa Credo, France), weighing 25-30 g, were housed four per cage (25 × 15 × 13 cm), on a 12 hr/12 hr light/dark cycle (lights on at 07:00 a.m.), with food and water ad libitum. […] Experiments with D3R-deficient mice were performed on male homozygous mutant mice and their wild-type littermates. […] Subsequently, these mice were backcrossed up to 8 times with C57BL6 mice. The mice used in the present study were backcrossed 7 to 8 times.
as §2
(§4) In addition, another experiment was performed with two groups of 8 mice of each genotype, injected with either saline or haloperidol (0.05 mg/kg).
as §3

[3] = system: D3 receptor-deficient mice (D3R^-/-); test: MK-801-induced locomotor activity in D3 receptor-deficient mice; type: in vivo; details: compound 1 mg/kg; MK-801 […]; D3R^-/- mice
Procedure: as §1, §2, §4, §3

[4] = system: Swiss mice; test: Locomotor hyperactivity induced by continuous infusion of MK-801 (osmotic minipumps); type: in vivo
Procedure: Male Swiss mice (IFFA CREDO, France), weighing 26-28 g, were housed six per cage (25 × 15 ×13 cm), on a 12 h/12 h light/dark cycle (lights on at 07:00 a.m.), with food and water freely available. Room temperature ranged from 20° to 22°C and humidity varied between 55% and 65%.
Dizocilpine, as (+)-MK-801 maleate (Sigma), dissolved in 0.9% NaCl (saline), and its respective vehicle solution, was continuously infused via osmotic minipumps (Model 1007D, Alzet Corp.). Minipumps were filled 6 h prior to implantation and placed in a sterile saline water bath at 37°C. Taking into consideration the average weight of the mice at the time of testing, and the rate of the minipump delivery (specified by the manufacturer), the MK-801 concentration was adjusted to deliver 0.01 or 0.02 mg/kg/hr (0.48 mg/kg/day). Mice were anaesthetized with chloral hydrate (400 mg/kg i.p.), and an area on the back of the mice was shaved and cleaned with 70% ethanol. A small incision was made, a pocket beneath the skin was formed and the minipump was placed inside the pocket in each mouse. The incision was sutured, and cleaned with 70% ethanol. The mice were returned in their home cage and in about 2 h they had recovered and were active.
Once the minipumps implanted (Day 0), the locomotor activity was measured for 1h, at days 2, 4 and 7 in an actimeter (Imetronic, Pessac, France).
as §3, with “measure). Data from the resident-intruder assay were analyzed by analysis of variance (ANOVA), followed by a Tukey-Kramer Multiple Comparison post-hoc test.” for “measure).”

[5] = system: MK-801-treated mice; test: Resident-intruder assay in MK-801-treated mice; type: in vivo; details: MK-801 0.02 mg/kg/h for 7 days; compound 1 mg/kg i.p. 30 min prior testing; 5 min
Procedure: Male mice were housed individually or in groups of five for at least 1 week prior to minipump implantation (Day 0), delivering MK-801 (0.02 mg/kg/h) or saline (Sham), and were tested at day 7. As described in Dixon et al. (1994), a group-housed male (intruder) was placed in the home cage of the individually housed male (resident), and their behaviors were video recorded for 5 min. […] The videotaped behaviors of the resident or intruder male were individually scored, by an experimenter unaware of the treatment group, for time spent in social investigation (approaching, sniffing, grooming other mouse, and sexual behavior), and in escape behavior (actively avoiding the unfamiliar congener). The scores for each behavior were subsequently averaged for each group.
as §3, with “measure). Data from the resident-intruder assay were analyzed by analysis of variance (ANOVA), followed by a Tukey-Kramer Multiple Comparison post-hoc test.” for “measure).”

[6] = system: PD-like rats; test: Rotations in PD-like rats (6-hydroxydopamine lesion, levodopa-treated); type: in vivo; details: saline 108 ± 7
[7] = Plasma concentrations in monkeys (radioreceptor assay); type: in vivo
[8] = Plasma concentrations in mice; type: in vivo; details: after injection at a dose giving selective effects at the D3 receptor; n = 6
[9] = system: MPTP-intoxicated monkeys; test: Levodopa-induced dyskinesia, PD-like symptoms and locomotor activity in MPTP-intoxicated monkeys

For `COc1ccccc1N1CCN(CCCCNC(=O)c2ccc3ccccc3c2)CC1` [BP 897, 1-(4-(2-Naphthoylamino)butyl)-4-(2-methoxyphenyl)-1A-piperazine], the “activity with MK-801” value ([1]; MK-801 […], 60 min, compound i.p. 0.1, 0.3, 1 mg/kg (haloperidol 0.03, 0.1, 0.3 mg/kg), overall dose-response) was “dose-dependently reduced”, the “level to which locomotor activity in MK-801-treated mice was reduced” value ([1]; MK-801 […], level corresponds to saline-treated mice) was 30-40% and the MK-801-induced hyperactivity ([1]; compound 0.3 mg/kg i.p., MK-801 […]) was “significantly reduced”. For the same molecule, the MK-801-induced hyperactivity ([1]; compound 1 mg/kg i.p., MK-801 […]) was “significantly reduced”, the “decrease of the activity in the presence of MK-801” value ([1]; compound 1 mg/kg, MK-801 0.3 mg/kg, statistically non significant) was 10-15% and the spontaneous activity ([1]; habituation phase, 30 min starting 5 min after injection, all doses tested) was “without any effect”. The “minimal active dose to reduce the hyperactivity induced by 0.3 mg/kg of MK-801” value ([2]; D3R^+/+ and D3R^-/- mice) was 3 mg/kg, the MK-801-induced activity ([2]; compound 1 mg/kg, MK-801 […], D3R^+/+ mice) was “inhibited” and the “spontaneous activity during the habituation phase” value ([2]; compound 1 mg/kg, experiment with D3R^+/+ and D3R^-/- mice) was “Neither of the drugs affected”. For the same molecule, the “locomotor response to MK-801” value [3] was “no longer able to inhibit”, the MK-801-induced hyperactivity ([4]; acute administration on the 10th day after minipump implantation, clozapine 1 mg/kg, haloperidol 0.3 mg/kg, BP 897 1 mg/kg) was “effect similar to that produced by clozapine or haloperidol” and the spontaneous hyperactivity ([4]; subchronic treatment twice a day for 4.5 days from day 6, BP 897 1 mg/kg, haloperidol 0.3 mg/kg, recorded at least 6 hours after last administration) was “reversed”. For the same molecule, the methamphetamine-induced hyperactivity ([4]; subchronic treatment twice a day for 4.5 days from day 6, methamphetamine 1 mg/kg, recorded at least 6 hours after last administration) was “reversed”, the Social investigations [5] was “restored” and the escape behavior [5] was “completely normalized”. For the same molecule, the numbers of rotations ([6]; BP 897 0.1 mg/kg with levodopa 50 mg/kg, n = 8) was 89 ± 10, the numbers of rotations ([6]; BP 897 0.3 mg/kg with levodopa 50 mg/kg, n = 17) was 91 ± 12 and the numbers of rotations ([6]; BP 897 1.0 mg/kg with levodopa 50 mg/kg, n = 13) was 68 ± 8. The numbers of rotations ([6]; BP 897 3.0 mg/kg with levodopa 50 mg/kg, n = 13) was 66 ± 12, the maximal plasma concentration ([7]; BP 897 5.0 or 10 mg/kg orally) was 280 ± 110 nM and the “time of maximal plasma concentration” value ([7]; monkey, in vivo) was 60 min. For the same molecule, the half-life ([7]; monkey, plasma) was roughly 1 h, the plasma concentration [8] was 130 ± 14 nM and the “attenuation of LID” value ([9]; calculated from areas under curve, BP 897 5.0 or 10 mg/kg orally with levodopa) was 66%. For the same molecule, the on-time duration ([9]; from activity counts, threshold at 30% of the maximal activity, over 5 hr) was “no difference with placebo”, the “antidyskinetic effect along repeated administrations” value ([9]; one monkey, BP 897 12 times) was “did not show any obvious signs of decline” and the “dose reaching a maximal effect on LID” value ([9]; tailored for each monkey, oral, with a fixed dose of levodopa, 5.0 (n = 1), 10 (n = 4)) was 5.0 mg/kg and 10 mg/kg. For the same molecule, the “locomotor activity (activity counts)” value ([9]; with levodopa) was “undermine the levodopa-induced activity around the dyskinesia threshold” and the “antiparkinson activity of the compound alone” value ([9]; without levodopa, two dyskinetic monkeys) was “no antiparkinson activity”.
